Laboratory results taken from patent US20080299563A1, “HUMAN MAP2 GENE PROMOTER” (priority 2007, published 2008).

How the values were obtained:
[1] = tested on: MAP2 promoter; test: Notch1 inhibition / HES1 knockdown, phMAP2-2 luciferase assay in WM35 primary melanoma cells; assay type: cell-based, human; conditions: DAPT 1 or 2 μM, 0.6 μg HES1shRNA
Protocol: (§1) Transient transfection and luciferase assays: Transient transfections with various promoter constructs were performed using Lipofectamine (Invitrogen, Carlsbad, Calif.) according to the manufacturer's instructions. Cells in 24- or 6-well tissue culture dishes, in triplicates, were transfected with 0.6 or 3 μg, respectively, of empty vector pGL3 or promoter-reporter constructs (phMAP2-1, phMAP2-2, phMAP2-3 and phMAP2-4) and 0.07 or 0.5 μg Renilla luciferase plasmid pRL. In co-transfection experiments, different amounts of NeuroD and Hes1 expression plasmids were added. For Notch1 inhibition and HES1 knockdown experiments, cells were either pre-treated with indicated amount of γ-secretase inhibitor-DAPT (Calbiochem, La Jolla, Calif.) and/or transfected with indicated amount of lentiviral HES1shRNA plasmid (The RNAi Consortium collection, a library of short hairpin DNAs cloned in pLKO.1 lentiviral vector; Open biosystem, Huntsville, Ala.) 1 day before transfection with MAP2 promoter constructs. After 48 h of transfection, cells were washed with pre-chilled PBS and lysed in passive lysis buffer (Dual Luciferase kit, Promega). Firefly luciferase and Renilla luciferase activities in the cell lysates were measured according to the manufacturer's instructions using TD 20/20-luminometer (Turner Biosystems, Sunnyvale, Calif.). […]

[2] = tested on: MAP2 promoter; test: Notch1 inhibition / HES1 knockdown, phMAP2-2 luciferase assay in 451Lu metastatic melanoma cells; assay type: cell-based, human; conditions: DAPT 1 or 2 μM, 0.6 μg HES1shRNA
Protocol: as §1

With C[C@H](NC(=O)Cc1cc(F)cc(F)c1)C(=O)N[C@H](C(=O)OC(C)(C)C)c1ccccc1 [DAPT] the “MAP2 promoter activity (phMAP2-2 luciferase)” value [1] was “dose-dependent increase” and the “MAP2 promoter activity (phMAP2-2 luciferase)” value [2] was “not sufficient to activate MAP2 promoter”.
